Results published in patent US7863265B2, “2-azetidinone derivatives and their use as cholesterol absorption inhibitors for the treatment of hyperlipidaemia” (AstraZeneca AB, priority 2005, dated 2011).

Key:
[1] = system: 14C-cholesterol absorption; experiment: In vivo testing of cholesterol absorption inhibitors (A); settings: 0.2 μmol/kg by gavage, procedure A, C57BL/6 female mice
Protocol: In Vivo Testing of Cholesterol Absorption Inhibitors (A)
C57BL/6 female mice were maintained on regular chow diet and housed in individual cages to collect faeces. Mice were fasted for 3 hours and then gavaged with vehicle or compound. Half an hour later the mice were gavaged with radiolabelled cholesterol. Six hours after the ^14C-cholesterol gavage blood samples were taken via the tail and plasma prepared to determine how much cholesterol were absorbed. 24 hours after the gavage of ^14C-cholesterol the mice were bled and plasma were prepared for analysis. Faeces were collected for 24 hours to assess absorption efficiency.

[2] = Absorption in a Caco-2 cells model; type: in vitro ADME; settings: human
Protocol: (§1) Absorption of the compounds of formula (I) was tested in a Caco-2 cells model (Gastroenterology 1989, 96, 736): […]

Caco-2 cells = experiment: Absorption in a Caco-2 cells model; type: in vitro ADME
Protocol: as §1

Papp [2] [×10⁻⁶ cm/s]	Caco value (Caco-2 cells) [×10⁻⁶ cm/s]	Structure (SMILES)	inhibition of 14C-cholesterol absorption [1] [%]
0.04	–	O=C(COc1ccc([C@@H]2[C@@H](SCC(O)c3ccc(F)cc3)C(=O)N2c2ccc(F)cc2)cc1)NCC(=O)N[C@H](CC1CCCCC1)C(=O)O (single isomer, unassigned) [Example 4, N-{[4-((2R,3R)-1-(4-fluorophenyl)-3-{[(2R or S)-2-(4-fluorophenyl)-2-hydroxyethyl]thio}-4-oxoazetidin-2-yl)phenoxy]acetyl}glycyl-3-cyclohexyl-D-alanine]	75
–	–	CC(C)(c1ccccc1)[C@@H](NC(=O)CNC(=O)COc1ccc([C@@H]2[C@@H](SCC(O)c3ccc(F)cc3)C(=O)N2c2ccc(F)cc2)cc1)C(=O)O (single isomer, unassigned) [Example 5, N-{[4-((2R,3R)-1-(4-fluorophenyl)-3-{[(2R or S)-2-(4-fluorophenyl)-2-hydroxyethyl]thio}-4-oxoazetidin-2-yl)phenoxy]acetyl}glycyl-β,β-dimethyl-D-phenylalanine]	78
–	0.02	CC(C)(C)[C@@H](NC(=O)CNC(=O)COc1ccc([C@@H]2[C@@H](SC[C@H](O)c3ccc(F)cc3)C(=O)N2c2ccc(F)cc2)cc1)C(=O)O [Example 3, N-{[4-((2R,3R)-1-(4-fluorophenyl)-3-{[(2R or 6)-2-(4-fluorophenyl)-2-hydroxyethyl]thio}-4-oxoazetidin-2-yl)phenoxy]acetyl}glycyl-3-methyl-D-valine]	73
